Source: patent US7858615B2, “(S)-(-)-1-(4-fluoroisoquinolin-5-Yl)Sulfonyl-2-methyl-1,4-homopiperazine hydrochloride dihydrate” (Kowa Co., Ltd., priority 2004, dated 2010)
“Also recorded” adds a separate entry of the source. Counter-ions that a name gives are not always drawn.

Assays:
[1] = Test Example 2 (Hygroscopicity): weight increase in open weighing bottle at 25° C. and controlled RH; type: physicochemical; conditions: for hygroscopic stability in words: RH 33% or 92%, time-dependent; for water content reached with elapsed time: eventual value, hydrochloride
Description: Each of the dihydrate of the present invention produced in Example 1 and (S)-(−)-1-(4-fluoroisoquinolin-5-yl)sulfonyl-2-methyl-1,4-homopiperazine hydrochloride anhydrate (each 100 mg) was placed in a weighing bottle. The bottle was allowed to stand in a container maintained at 25° C. and an RH of 33% or 92%, with the container being opened. The weighing bottle was time-dependently weighed, to thereby determine increase in weight for evaluation of hygroscopicity. FIGS. 6 and 7 show the results.

[2] = Test Example 1 (Thermal Stability): storage in sealed containers in thermostats; type: physicochemical; conditions: for Percent remain (%): sealed container
Description: The dihydrate of the present invention produced in Example 1 was placed in sealable containers such that each container included 1 g of the dihydrate. After sealing, these containers were maintained in thermostats at 40, 60, and 80° C. for 7 and 14 days, so as to evaluate thermal stability.

| Compound | hygroscopic stability in words [1] | change of water content (hygroscopic behavior) in words ([1]; relative humidity 92% RH, 14 days, hydrochloride dihydrate) | thermal stability in words ([2]; after storage at 40° C., 60° C., or 80° C. for two weeks) | Percent remain (%) ([2]; storage temp. 40° C., storage period 7 days) | Percent remain (%) ([2]; storage temp. 40° C., storage period 14 days) | Percent remain (%) ([2]; storage temp. 60° C., storage period 7 days) | Percent remain (%) ([2]; storage temp. 60° C., storage period 14 days) | Percent remain (%) ([2]; storage temp. 80° C., storage period 7 days) | Percent remain (%) ([2]; storage temp. 80° C., storage period 14 days) | thermal stability (decomposition or undesired reaction) in words ([2]; stored at 80° C. for two weeks) | water content reached with elapsed time ([1]; relative humidity 92%) | water content reached with elapsed time ([1]; relative humidity 92%, listed as anhydrate) [%] | water content after seven days ([1]; relative humidity 92%, seven days) [%] |
| --- | --- | --- | --- | --- | --- | --- | --- | --- | --- | --- | --- | --- | --- |
| C[C@H]1CNCCCN1S(=O)(=O)c1cccc2cncc(F)c12 [dihydrate, (S)-(−)-1-(4-fluoroisoquinolin-5-yl)sulfonyl-2-methyl-1,4-homopiperazine hydrochloride dihydrate] | excellent hygroscopic stability | constant; also recorded: no change in its water content | high thermal stability | 100.0 | 99.6 | 99.6 | 99.8 | 99.8 | 99.8 | does not decompose |  |  |  |
| C[C@H]1CNCCCN1S(=O)(=O)c1cccc2cncc(F)c12.Cl [anhydrous crystals, (S)-(−)-1-(4-fluoroisoquinolin-5-yl)sulfonyl-2-methyl-1,4-homopiperazine hydrochloride] | poor hygroscopic stability |  |  |  |  |  |  |  |  |  | about 40% | 40 | 40 |
